{"source": "patent US20100035257A1", "about": "(GENERAL HOSPITAL, published 2010)", "molecules": {"B1": {"name": "ΔNp63α (other)", "chain": "MLYLENNAQTQFSEPQYTNLGLLNSMDQQIQNGSSSTSPYNTDHAQNSVTAPSPYAQPSSTFDALSPSPAIPSNTDYPGPHSFDVSFQQSSTAKSATWTYSTELKKLYCQIAKTCPIQIKVMTPPPQGAVIRAMPVYKKAEHVTEVVKRCPNHELSREFNEGQIAPPSHLIRVEGNSHAQYVEDPITGRQSVLVPYEPPQVGTEFTTVLYNFMCNSSCVGGMNRRPILIIVTLETRDGQVLGRRCFEARICACPGRDRKADEDSIRKQQVSDSTKNGDGTKRPFRQNTHGIQMTSIKKRRSPDDELLYLPVRGRETYEMLLKIKESLELMQYLPQHTIETYRQQQQQQHQHLLQKQTSIQSPSSYGNSSPPLNKMNSMNKLPSVSQLINPQQRNALTPTTIPDGMGANIPMMGTHMPMAGDMNGLSPTQALPPPLSMPSTSHCTPPPPYPTDCSIVSFLARLGCSSCLDYFTTQGLTTIYQIEHYSMDDLASLKIPEQFRHAIWKGILDHRQLHEFSSPSHLLRTPSSASTVSVGSSETRGERVIDAVRFTLRQTISFPPRDEWNDFNFDMDARRNKQQRIKEEGE", "notes": "The text mentions hetero-tetramers with TAp73, but the stoichiometry was not measured; also called DNp63a; DNp63α"}}, "key": {"MCF-10A cells": {"tested_on": "MCF-10A cells", "test": "Chemosensitivity assay (MTT cell viability)", "type": "cell-based, human", "conditions": "for effect of ectopic TAp73β expression on sensitivity: retroviral TAp73β vs control vector", "description": "(§1) Chemosensitivity assay. Dose-response curves and IC50 values were determined using the methyl thiazolyl tetrazolium (MTT) cell viability assay as described previously (52). Cells were seeded into 96-well microtiter plates for 24 hours at a density of 5×10^3 per well. Serial drug dilutions were prepared in medium immediately before each assay and viable cell masses following 3 days or 5 days of drug exposure were determined by cell-mediated MTT reduction. Cell growth as well as drug activity were determined by measuring absorbance at 550 nm using an Anthos Labtec systems plate reader."}, "PUMA and NOXA": {"tested_on": "PUMA and NOXA", "test": "QRT-PCR of pro-apoptotic effector genes after drug treatment", "type": "cell-based, human", "description": "ORT-PCR analysis. Total RNA from cells was extracted using STAT-60 RNA isolation solution (Tel-Test Inc., Friendswood, USA) according to manufacturer's protocol. First-strand cDNA was synthesized from total RNA using random hexamer primers and the SuperScript II system for RT-PCR (Invitrogen). Gene expression levels were measured by real-time QRT-PCR using the iQ SYBR Green Supermix reagent (Bio-Rad) and an OPTICON™ real-time PCR detector system (MJ Research). Data analysis was performed using OPTICON MONITOR™ Analysis Software V1.08 (MJ Research). The expression of each gene was normalized to GAPDH or B2M as a reference. The relative copy numbers were calculated from an 8-point standard curve generated from a ten fold serial dilution of full length cDNA constructs as described previously (15).\nSpecific forward and reverse primers (respectively) for ΔNp63 were: 5′-[…]-3′ and 5′-[…]-3′; for TAp63 were 5′-[…]-3′ and 5′-[…]-3′; for TAp73 were 5′-[…]-3′ and […]-3′; for ΔNp73 were 5′-[…]-3′ and 5′-[…]-3′; for GAPDH were: 5′-[…]-3′ and 5′-[…]-3′ and for detection of B2M were 5′-[…]-3′ and 5′-[…]-3′. The conditions for all QRT-PCR reactions were: 3 min at 94° C., followed by 40 sec at 94° C., 40 sec at 60° C. and 25 sec at 72° C. for 40 cycles. All PCR products were confirmed by the presence of a single-peak upon melting-curve analysis and by gel electrophoresis. No-template (water) reaction mixtures and “no reverse transcriptase” mixtures were performed on all samples as negative controls. All experiments were performed in duplicate."}, "HCC-1937 cells": {"tested_on": "HCC-1937 cells", "test": "Chemosensitivity assay (MTT cell viability)", "type": "cell-based, human", "description": "as §1"}, "MCF-7 cells": {"tested_on": "MCF-7 cells", "test": "Chemosensitivity assay (MTT cell viability)", "type": "cell-based, human", "conditions": "TAp73 knockdown", "description": "as §1"}, "MDA-MB-468 cells": {"tested_on": "MDA-MB-468 cells", "test": "Chemosensitivity assay (MTT cell viability)", "type": "cell-based, human", "description": "as §1"}, "[1]": {"tested_on": "human breast cancer-derived cell lines", "test": "p73/p63 biomarker and in vitro cisplatin sensitivity", "type": "cell-based", "conditions": "Biomarker Positive cell lines", "description": "as §1\nCorrelation of DNp63/TAp73 biomarker expression and cisplatin sensitivity in vitro. The inventors next established the threshold for DNp63/TAp73 biomarker expression that reflected the biochemcially-defined cisplatin sensitivity pathway. The inventors defined biomarker positivity as a DNp63/TAp73 ratio >2, a value that corresponds to the molar ratio of DNp63 required to inactivate essentially all (>99%) pro-apoptotic TAp73 through DNp63/TAp73 hetero-tetramer formation. The inventors assessed the ability of this defined biomarker threshold to predict cisplatin sensitivity in a limited number of human breast cancer-derived cell lines. As shown below in Table 2, the positively for the biomarker correlated with cisplatin sensitivity in these cells. […]"}, "TAp73": {"tested_on": "TAp73", "test": "IP/immunoblot for p73 tyrosine phosphorylation"}, "ΔNp63α/TAp73 complex": {"tested_on": "ΔNp63α/TAp73 complex", "test": "Co-immunoprecipitation of the ΔNp63α/TAp73 complex"}, "[2]": {"biological_target": "T1, wild-type TAp73α (retrovirally expressed in MCF-10A cells) (human, UniProt O15350 1-636)", "T1 construct": "Ectopic wild-type TAp73α expressed via retrovirus in MCF-10A cells; It is tyrosine phosphorylated after cisplatin treatment; Construct limits and tags are not described; also called retroviral TAp73α", "T1 sequence": "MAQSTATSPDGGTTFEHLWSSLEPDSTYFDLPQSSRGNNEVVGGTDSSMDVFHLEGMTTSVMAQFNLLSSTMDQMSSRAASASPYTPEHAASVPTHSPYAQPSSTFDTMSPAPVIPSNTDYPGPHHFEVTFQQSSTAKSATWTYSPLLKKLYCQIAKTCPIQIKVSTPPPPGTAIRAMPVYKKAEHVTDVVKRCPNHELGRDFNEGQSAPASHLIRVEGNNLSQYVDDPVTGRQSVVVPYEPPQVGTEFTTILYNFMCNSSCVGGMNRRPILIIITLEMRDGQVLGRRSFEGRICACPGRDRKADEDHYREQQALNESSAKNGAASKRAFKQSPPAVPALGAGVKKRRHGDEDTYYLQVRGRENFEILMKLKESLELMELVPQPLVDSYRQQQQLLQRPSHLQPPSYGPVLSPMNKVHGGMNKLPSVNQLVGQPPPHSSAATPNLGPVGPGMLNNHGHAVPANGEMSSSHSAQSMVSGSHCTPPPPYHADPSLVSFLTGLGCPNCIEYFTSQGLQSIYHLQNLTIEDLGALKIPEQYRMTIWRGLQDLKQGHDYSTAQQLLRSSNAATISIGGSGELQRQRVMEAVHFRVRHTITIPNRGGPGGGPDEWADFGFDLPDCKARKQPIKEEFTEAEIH", "test": "co-IP, MCF-10A cells, untreated"}, "Y99F TAp73α": {"biological_target": "T2, Y99F TAp73α (human, UniProt O15350 1-636)", "T2 construct": "Expressed via retrovirus in MCF-10A cells; also called site-specific Y99F mutant TAp73α", "T2 sequence": "T1 sequence with Y99F", "test": "IP for p63 or p73 with immunoblot, MCF-10A cells with retroviral Y99F TAp73α, after cisplatin"}, "[3]": {"conditions": "MCF-10A cells, cisplatin treatment"}}, "note": "Substitutions are numbered along the chain they refer to."}
{"molecule": "CC(=O)O[C@H]1C(=O)[C@@]2(C)[C@H]([C@H](OC(=O)c3ccccc3)[C@]3(O)C[C@H](OC(=O)[C@H](O)[C@@H](NC(=O)c4ccccc4)c4ccccc4)C(C)=C1C3(C)C)[C@]1(OC(C)=O)CO[C@@H]1C[C@@H]2O", "note": "[paclitaxel]", "values": [{"measurement": "effect of ectopic TAp73β expression on sensitivity", "setting": "MCF-10A cells", "result": "did not significantly enhance sensitivity"}]}
{"molecule": "COc1cccc2c1C(=O)c1c(O)c3c(c(O)c1C2=O)C[C@@](O)(C(=O)CO)C[C@@H]3O[C@H]1C[C@H](N)[C@H](O)[C@H](C)O1", "note": "[doxorubicin]", "values": [{"measurement": "effect of ectopic TAp73β expression on sensitivity", "setting": "MCF-10A cells", "result": "did not significantly enhance sensitivity"}, {"measurement": "induction of other pro-apoptotic effectors", "setting": "PUMA and NOXA; equally toxic concentration", "result": "no significant induction"}, {"measurement": "increase in PUMA", "setting": "PUMA and NOXA; equally toxic concentration as cisplatin", "result": 2, "unit": "fold"}]}
{"molecule": "N.N.[Cl][Pt][Cl]", "note": "[cisplatin, cis-diaminedichloroplatinuim (II)]", "values": [{"measurement": "IC70 dose", "setting": "HCC-1937 cells; HCC-1937 cells", "result": 6.6, "unit": "µM"}, {"measurement": "effect of TAp73 knockdown on the IC50", "setting": "HCC-1937 cells; TAp73-directed lentiviral shRNA vs vector control, HCC-1937", "result": "more than 10 fold"}, {"measurement": "effect of Y99F TAp73 expression on sensitivity", "setting": "MCF-10A cells", "result": "little, if any, effect"}, {"measurement": "effect of wild-type TAp73 expression on sensitivity", "setting": "MCF-10A cells; P<0.01", "result": "significantly increased sensitivity"}, {"measurement": "effect of ectopic TAp73β expression on sensitivity", "setting": "MCF-10A cells", "result": "significantly increased the sensitivity"}, {"measurement": "TAp73 as mediator of sensitivity", "setting": "MCF-7 cells", "result": "not a mediator of sensitivity"}, {"measurement": "effect of TAp73 knockdown on the IC50", "setting": "MDA-MB-468 cells; TAp73-directed lentiviral shRNA vs vector control, MDA MB-468", "result": "more than 10 fold"}, {"measurement": "induction of PUMA and NOXA", "setting": "PUMA and NOXA; HCC-1937 cells, following treatment", "result": "robustly induced"}, {"measurement": "time to TAp73-dependent transcription of PUMA and NOXA", "setting": "PUMA and NOXA; after cisplatin treatment", "result": "≤ 2", "unit": "h"}, {"measurement": "Percent Sensitive", "setting": "[1]", "result": "57% ( 4/7)"}, {"measurement": "tyrosine phosphorylation of p73", "setting": "TAp73; HCC-1937 and MB-468 cells, maximal at 6 hours", "result": "tyrosine phosphorylation of p73 was observed"}, {"measurement": "phosphorylation of Y99F TAp73", "setting": "TAp73; [3]", "result": "little detectable phosphorylation"}, {"measurement": "phosphorylation of ectopic wild-type TAp73", "setting": "TAp73; [3]", "result": "strongly phosphorylated"}, {"measurement": "dissociation of Y99F TAp73 from ΔNp63α", "setting": "ΔNp63α/TAp73 complex; MCF-10A cells, 6 hours", "result": "essentially no dissociation"}, {"measurement": "dissociation of ΔNp63α from wild-type TAp73", "setting": "ΔNp63α/TAp73 complex; MCF-10A cells, 6 hours", "result": "substantial dissociation"}, {"measurement": "dissociation of the ΔNp63α/TAp73 complex", "setting": "ΔNp63α/TAp73 complex; endogenous proteins, breast cancer cells, following treatment", "result": "substantial dissociation"}]}
{"molecule": "Cc1ccc(NC(=O)c2ccc(CN3CCN(C)CC3)cc2)cc1Nc1nccc(-c2cccnc2)n1", "note": "[STI-571, Imatinib]", "values": [{"measurement": "cell proliferation", "setting": "HCC-1937 cells; HCC-1937, at the dose used in these assays", "result": "did not affect"}, {"measurement": "rescue from cell death induced by cisplatin", "setting": "HCC-1937 cells; pretreatment, then cisplatin, HCC-1937", "result": "substantial rescue"}, {"measurement": "cell proliferation", "setting": "MDA-MB-468 cells; MDA-MB-468, at the dose used in these assays", "result": "did not affect"}, {"measurement": "rescue from cell death induced by cisplatin", "setting": "MDA-MB-468 cells; pretreatment, then cisplatin, MDA-MB-468", "result": "substantial rescue"}, {"measurement": "baseline NOXA expression", "setting": "PUMA and NOXA; HCC-1937 and MDA-MB-468 cells", "result": "no effect"}, {"measurement": "p73-dependent induction of NOXA following cisplatin treatment", "setting": "PUMA and NOXA; pretreatment, HCC-1937 and MDA-MB-468 cells, 6 hours", "result": "blocked"}]}
{"molecule": "B1", "values": [{"measurement": "binding result", "setting": "[2]", "result": "binds"}, {"measurement": "binding result", "setting": "Y99F TAp73α", "result": "binds"}]}
